# Patent US9682995B2, “Amino-substituted isothiazoles” (BAYER PHARMA AKTIENGESELLSCHAFT, priority 2013, dated 2017)
# Experiments:
# [1] = system: spindle assembly checkpoint; experiment: SAC-Formation - Nocodazole-Induced Assay; type: cell-based; conditions: Homo sapiens; HeLa cells, nocodazole 0.1 μg/ml, 24 h, phosphorylated histone H3 on serine 10
# Procedure, shortened: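 HeLa cells were given nocodazole at 0.1 μg/ml final together with compounds (0.005–20 μM, 0.5% DMSO) for 24 h at 37° C. Mitotic cells were counted by phospho-histone H3 Ser10 immunostaining, with cell number from HOECHST 33342, by high-content imaging. The loss of mitotic cells was fitted with a four-parameter Hill equation.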
# HeLa-MaTu-ADR = experiment: Proliferation assay (crystal violet), HeLa-MaTu-ADR; type: cell-based; conditions: 96 h, 4 days, read-out: Inhibition of proliferation IC50 HeLa-MaTu-ADR
# Procedure: (§1) Cultivated tumor cells (cells were ordered from ATCC, except HeLa-MaTu and HeLa-MaTu-ADR, which were ordered from EPO-GmbH, Berlin) were plated at a density of 1000 to 5000 cells/well, depending on the growth rate of the respective cell line, in a 96-well multititer plate in 200 μL of their respective growth medium supplemented 10% fetal calf serum. After 24 hours, the cells of one plate (zero-point plate) were stained with crystal violet (see below), while the medium of the other plates was replaced by fresh culture medium (200 μl), to which the test substances were added in various concentrations (0 μM, as well as in the range of 0.001-10 μM; the final concentration of the solvent dimethyl sulfoxide was 0.5%). The cells were incubated for 4 days in the presence of test substances. Cell proliferation was determined by staining the cells with crystal violet: the cells were fixed by adding 20 μl/measuring point of an 11% glutaric aldehyde solution for 15 minutes at room temperature. After three washing cycles of the fixed cells with water, the plates were dried at room temperature. The cells were stained by adding 100 μl/measuring point of a 0.1% crystal violet solution (pH 3.0). After three washing cycles of the stained cells with water, the plates were dried at room temperature. The dye was dissolved by adding 100 μl/measuring point of a 10% acetic acid solution. Absorption was determined by photometry at a wavelength of 595 nm. The change of cell number, in percent, was calculated by normalization of the measured values to the absorption values of the zero-point plate (=0%) and the absorption of the untreated (0 μm) cells (=100%). The IC50 values were determined by means of a 4 parameter fit.
# B16F10 = experiment: Proliferation assay (crystal violet), B16F10; type: cell-based; conditions: Mus musculus, B16-F10, 96 h; B16F10, 4 days; read-out: Inhibition of proliferation IC50 B16F10
# Procedure: as §1
# DU145 = experiment: Proliferation assay (crystal violet), DU145; type: cell-based; conditions: Homo sapiens, DU-145, 96 h; DU145, 4 days; read-out: Inhibition of proliferation IC50 DU145
# Procedure: as §1
# HeLa = experiment: Proliferation assay (crystal violet), HeLa; type: cell-based; conditions: Homo sapiens, 96 h, 4 days, read-out: Inhibition of proliferation IC50 HeLa
# Procedure, shortened: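 Tumour cells seeded at 1000–5000 cells/well in medium with 10% FCS, dosed after 24 h at 0.001–10 μM (0.5% DMSO final) for 4 days. Cell number read by crystal-violet staining after glutaraldehyde fixation (A595), normalised to zero-point plate (0%) and untreated cells (100%); IC50 from 4-parameter fit.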
# Caco2 = experiment: Proliferation assay (crystal violet), Caco2; type: cell-based; conditions: Homo sapiens, Caco-2, 96 h; Caco2, 4 days; read-out: Inhibition of proliferation IC50 Caco2
# Procedure: as §1
# NCI-H460 = experiment: Proliferation assay (crystal violet), NCI-H460; type: cell-based; conditions: Homo sapiens, 96 h; NCI-H460, 4 days; read-out: Inhibition of proliferation IC50 NCI-H460
# Procedure: as §1
# [2] = molecular target: 456 kinases (of these 395 non-mutant kinases) (Mycobacterium tuberculosis, UniProt P9WI81); experiment: Kinase Profiling (KINOMEscan); type: binding
# [3] = molecular target: 456 kinases (of these 395 non-mutant kinases) (Homo sapiens, UniProt P15056); experiment: Kinase Profiling (KINOMEscan); type: binding; conditions: BRAF; 10 μM
# [4] = molecular target: 456 kinases (of these 395 non-mutant kinases) (Homo sapiens, UniProt Q9Y463); experiment: Kinase Profiling (KINOMEscan); type: binding; conditions: DYRK1B; 10 μM
# 456 kinases (of these 395 non-mutant kinases) (Mycobacterium tuberculosis, UniProt P9WI81), sequence (P9WI81 2-626 limits assumed, change not shown): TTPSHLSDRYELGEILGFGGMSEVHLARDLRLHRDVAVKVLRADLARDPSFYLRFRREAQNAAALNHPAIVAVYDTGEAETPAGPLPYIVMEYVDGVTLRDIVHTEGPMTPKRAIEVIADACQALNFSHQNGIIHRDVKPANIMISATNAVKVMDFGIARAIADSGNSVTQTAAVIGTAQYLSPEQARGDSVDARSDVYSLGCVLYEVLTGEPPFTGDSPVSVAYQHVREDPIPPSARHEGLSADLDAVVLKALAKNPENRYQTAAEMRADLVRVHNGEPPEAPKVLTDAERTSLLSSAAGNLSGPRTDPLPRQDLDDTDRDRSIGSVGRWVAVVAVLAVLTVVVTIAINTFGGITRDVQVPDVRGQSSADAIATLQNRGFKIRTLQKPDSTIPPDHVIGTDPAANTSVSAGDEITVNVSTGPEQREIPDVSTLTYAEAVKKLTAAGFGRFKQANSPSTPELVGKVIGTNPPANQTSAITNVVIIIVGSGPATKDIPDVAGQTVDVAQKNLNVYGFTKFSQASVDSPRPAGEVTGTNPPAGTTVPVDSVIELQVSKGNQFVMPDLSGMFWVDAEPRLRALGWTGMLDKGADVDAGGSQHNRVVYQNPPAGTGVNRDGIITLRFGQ
# 456 kinases (of these 395 non-mutant kinases) (Homo sapiens, UniProt P15056), sequence (P15056 2-766 limits assumed, change not shown): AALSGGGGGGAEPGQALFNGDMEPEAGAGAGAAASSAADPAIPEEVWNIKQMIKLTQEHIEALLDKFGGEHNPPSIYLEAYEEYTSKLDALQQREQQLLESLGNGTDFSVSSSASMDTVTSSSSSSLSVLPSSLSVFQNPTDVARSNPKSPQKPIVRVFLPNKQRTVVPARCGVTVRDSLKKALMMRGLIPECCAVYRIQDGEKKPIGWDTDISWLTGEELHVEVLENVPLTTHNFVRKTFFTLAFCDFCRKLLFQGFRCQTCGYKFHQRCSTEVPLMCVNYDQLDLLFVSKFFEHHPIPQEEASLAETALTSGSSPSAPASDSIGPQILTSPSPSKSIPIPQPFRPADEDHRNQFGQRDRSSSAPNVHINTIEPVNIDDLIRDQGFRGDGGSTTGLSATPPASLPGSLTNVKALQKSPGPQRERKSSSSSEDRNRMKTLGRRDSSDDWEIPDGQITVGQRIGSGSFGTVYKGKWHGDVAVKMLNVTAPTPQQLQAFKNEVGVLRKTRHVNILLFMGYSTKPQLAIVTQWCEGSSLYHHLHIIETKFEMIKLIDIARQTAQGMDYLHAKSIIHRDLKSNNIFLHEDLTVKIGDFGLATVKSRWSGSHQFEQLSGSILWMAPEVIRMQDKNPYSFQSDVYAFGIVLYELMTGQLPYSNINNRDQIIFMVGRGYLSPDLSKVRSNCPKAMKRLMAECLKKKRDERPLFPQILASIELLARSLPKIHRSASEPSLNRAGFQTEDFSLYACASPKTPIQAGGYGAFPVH
smiles,measurement,setting,value
"CCc1ccccc1NC(=O)c1c(C)nsc1Nc1cnc2cc(F)ccc2n1 [Example 20, N-(2-Ethylphenyl)-5-[(6-fluoroquinoxalin-2-yl)amino]-3-methyl-1,2-thiazole-4-carboxamide]",IC50,[1],340 nM
same,IC50,HeLa-MaTu-ADR,500 nM
same,IC50,B16F10,530 nM
same,IC50,DU145,600 nM
same,IC50,HeLa,1100 nM
same,IC50,Caco2,550 nM
same,IC50,NCI-H460,440 nM
same,% Ctrl @ 10 μM,[2],100 % Ctrl
same,% Ctrl @ 10 μM,[3],82 % Ctrl
same,% Ctrl @ 10 μM,[4],100 % Ctrl
